Laboratory results as given in patent US20250295642A1, “FLUOROQUINOXALINONE DERIVATIVE FOR SELECTIVELY INHIBITING PARP1” (MEDSHINE DISCOVERY INC., priority 2022, published 2025).
pIC50: −log10 of the molar value.

Key:
[1] = In vitro liver microsomal stability, human liver microsomes
Description: (§1) The concentration of the compound in the samples was determined by LC-MS/MS.
(§2) Experimental process: The incubation was performed using 96-well incubation plates, with individual plates labeled as T0, T5, T15, T30, T45, T60, Blank60, and NCF60. The reaction time points corresponding to the incubation plates were set at 0, 5, 15, 30, 45, and 60 minutes. In the Blank60 plate, no test compound or control compound was added, and the sample was collected after 60 minutes of incubation. In the NCF60 plate, potassium phosphate buffer was used in place of the NADPH regeneration system and incubated for 60 minutes. All time point samples were taken from individual wells.
For the T0, T5, T15, T30, T45, T60, and NCF60 plates, 5 μL of either the test or control compound working solution and 100 μL of microsomal working solution (with a liver microsomal protein concentration of 0.5 mg/mL) were added. Only microsomal working solution was added to the Blank60 well. In the Blank60 plate, only the microsomal working solution was added. Then, the incubation plates, except for TO and NCF60, including Blank60, T5, T15, T30, T45, and T60, were pre-incubated in a 37° C. water bath for approximately 10 minutes.
For samples in the TO plate, 180 μL of stop solution (where the stop solution was a solution of acetonitrile and methanol (95:5, V/V) containing 100 ng/mL tolbutamide) was added before adding the NADPH regeneration system working solution.
50 μL of potassium phosphate buffer was added to each well of the NCF60 plate and incubated for 60 minutes.
After the pre-incubation of Blank60, T5, T15, T30, T45, and T60 incubation plates, 44 μL of NADPH regeneration system working solution was added to each sample well to initiate the reaction. Therefore, for sample wells containing either the test compound or the control compound working solutions, the final reaction concentration was 1 μM, with the concentration of liver microsomes at 0.5 mg/mL. The final concentrations of DMSO and acetonitrile in the reaction system were 0.01% (v/v) and 0.99% (v/v), respectively.
After incubation for an appropriate period (e.g., 5, 15, 30, 45, and 60 minutes), 180 μL of stop solution was added to each test compound and control compound sample well in the Blank60, T5, T15, T30, T45, T60, and NCF60 plates to stop the reaction.
All sample plates were shaken thoroughly and centrifuged for 10 minutes. A volume of 80 μL of the supernatant from each test compound was diluted to 240 L with a solution of acetonitrile (1:9, v/v) containing 0.1% formic acid for LC-MS/MS analysis.

[2] = test system: MDA-MB-436 cells (BRCA1 mutation); test: Anti-proliferation assay on MDA-MB-436 cells (BRCA1 mutation); type: cell-based; conditions: Homo sapiens, MDA-MB-436, 168 h; incubated for 7 days, chemiluminescent cell viability; read-out: IC50, proliferation inhibition on MDA-MB-436 cells (BRCA1 mutation)
Description: MDA-MB-436 cells (BRCA1 mutation) were seeded in black 96-well plates with clear bottoms. Each well contained 135 μL of cell suspension with 3,500 MDA-MB-436 cells (BRCA1 mutation). The cell plate was incubated overnight in a CO2 incubator. A 400× stock solution of the test compound was prepared. […] 78 μL of medium was added to an intermediate plate. Subsequently, 2 μL of the serially diluted compound per well was transferred to the corresponding wells of the intermediate plate. 2 μL of DMSO was added to the vehicle control and blank control. After mixing well, 15 μL of the mixture per well was then transferred to the cell plate. […] The cell plate was incubated for 7 days in a CO2 incubator. The cell plate was removed and equilibrated to room temperature for 30 minutes. 75 μL of chemiluminescent cell viability assay reagent was added to each well. The cell plate was shaken on an orbital shaker for 3 minutes to induce cell lysis, followed by 10 minutes of incubation at room temperature to stabilize the luminescent signal.

[3] = In vitro liver microsomal stability, mouse liver microsomes
Description: as §1, §2
For the T0, T5, T15, T30, T45, T60, and NCF60 plates, 5 μL of either the test or control compound working solution and 100 μL of microsomal working solution (with a liver microsomal protein concentration of 0.5 mg/mL) were added. Only microsomal working solution was added to the Blank60 well. In the Blank60 plate, only the microsomal working solution was added. Then, the incubation plates, except for TO and NCF60, including Blank60, T5, T15, T30, T45, and T60, were pre-incubated in a 37° C. water bath for approximately 10 minutes. […]

[4] = target: PARP1 (Homo sapiens (Human), UniProt P09874); test: Binding activity between compound and PARP1, fluorescence polarization assay; conditions: 8 nM PARP1, 5 nM fluorescent probe, 4 hours at room temperature
Description: The fluorescence polarization assay was performed in 96-well black-walled plates (Greiner). The reaction buffer consisted of 50 mM Tris (pH 8), 0.001% Triton X100, 10 mM MgCl2, and 150 mM NaCl. Both the fluorescent probe and His-Avi-tagged PARP1 protein were manufactured by WuXi AppTec (Shanghai). In a 100 μL reaction system, 8 nM PARP1, 5 nM fluorescent probe, and the compounds were added respectively. The compound concentration was prepared following the starting concentration and dilution gradient in Table 1. […] The test sample was incubated at room temperature for 4 hours, protected from light. Fluorescence polarization values were measured using an En Vision plate reader. The obtained fluorescence polarization values and compound concentrations were subjected to nonlinear fitting using GraphPad 8.0 software to determine the IC50 values.

[5] = target: PARP2 (Homo sapiens (Human), UniProt Q9UGN5); test: Binding activity between compound and PARP2, fluorescence polarization assay; conditions: 3 nM PARP2, 5 nM fluorescent probe, 4 hours at room temperature
Description: The fluorescence polarization assay was performed in 96-well black-walled plates (Greiner). The reaction buffer consisted of 50 mM Tris (pH 8), 0.001% Triton X100, 10 mM MgCl2, and 150 mM NaCl. Both the fluorescent probe and His-Avi-tagged PARP2 protein were manufactured by WuXi AppTec (Shanghai). In a 100 μL reaction system, 3 nM PARP2, 5 nM fluorescent probe, and the compounds were added respectively. The compound concentration was prepared following the starting concentration and dilution gradient in Table 2. The test sample was incubated at room temperature for 4 hours, protected from light. Fluorescence polarization values were measured using an EnVision plate reader. The obtained fluorescence polarization values and compound concentrations were subjected to nonlinear fitting using GraphPad 8.0 software to determine the IC50 values.

[6] = test system: DLD1 (BRCA2 KO) cells; test: Anti-proliferation assay on DLD1 cells (BRCA2 KO); type: cell-based; conditions: Homo sapiens, DLD-1, 168 h; incubated for 7 days, chemiluminescent cell viability
Description: DLD1 (BRCA2 KO) cells were seeded in white a 96-well plate with 80 μL of cell suspension per well, containing 1,000 DLD1 (BRCA2 KO) cells per well. The cell plate was incubated overnight in a CO2 incubator. The test compounds were 5-fold diluted with a multi-channel pipette to the 8th concentration, i.e., diluted from 2 mM to 0.0256 μM, and duplicate experiment was set. 78 μL of medium was added to an intermediate plate. Subsequently, 2 μL of the serially diluted compound per well was transferred to the corresponding wells of the intermediate plate and mixed well. 20 μL of the mixture per well was then transferred to the cell plate. The concentration of the compound transferred to the cell plate ranged from 10 μM to 0.128 nM. The cell plate was incubated for 7 days in a CO2 incubator. An additional cell plate was prepared to read the signal value on the day of compound addition, which served as the maximum value (Max in the following equation) for data analysis. The cell plate was added with 25 μL of chemiluminescent cell viability assay reagent per well and incubated at room temperature for 10 minutes to stabilize the luminescent signal. A multimode microplate reader was used for reading. […].

PARP2, sequence (Q9UGN5 whole entry): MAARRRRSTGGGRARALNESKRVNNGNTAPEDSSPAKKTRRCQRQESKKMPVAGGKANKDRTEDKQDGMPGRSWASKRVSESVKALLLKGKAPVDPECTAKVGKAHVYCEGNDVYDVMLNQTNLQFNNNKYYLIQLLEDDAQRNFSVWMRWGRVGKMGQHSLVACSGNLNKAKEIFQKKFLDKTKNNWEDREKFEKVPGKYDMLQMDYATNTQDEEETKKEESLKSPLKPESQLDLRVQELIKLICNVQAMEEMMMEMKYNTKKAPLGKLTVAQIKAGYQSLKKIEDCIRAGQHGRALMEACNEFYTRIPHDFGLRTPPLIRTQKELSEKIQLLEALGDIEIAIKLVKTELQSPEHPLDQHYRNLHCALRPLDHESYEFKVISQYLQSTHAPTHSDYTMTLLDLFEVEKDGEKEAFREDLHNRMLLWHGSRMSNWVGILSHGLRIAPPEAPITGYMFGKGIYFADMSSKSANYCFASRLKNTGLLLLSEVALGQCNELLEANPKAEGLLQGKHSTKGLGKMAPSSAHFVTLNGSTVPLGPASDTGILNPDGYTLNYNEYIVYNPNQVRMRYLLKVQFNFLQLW
PARP1, sequence (P09874 whole entry): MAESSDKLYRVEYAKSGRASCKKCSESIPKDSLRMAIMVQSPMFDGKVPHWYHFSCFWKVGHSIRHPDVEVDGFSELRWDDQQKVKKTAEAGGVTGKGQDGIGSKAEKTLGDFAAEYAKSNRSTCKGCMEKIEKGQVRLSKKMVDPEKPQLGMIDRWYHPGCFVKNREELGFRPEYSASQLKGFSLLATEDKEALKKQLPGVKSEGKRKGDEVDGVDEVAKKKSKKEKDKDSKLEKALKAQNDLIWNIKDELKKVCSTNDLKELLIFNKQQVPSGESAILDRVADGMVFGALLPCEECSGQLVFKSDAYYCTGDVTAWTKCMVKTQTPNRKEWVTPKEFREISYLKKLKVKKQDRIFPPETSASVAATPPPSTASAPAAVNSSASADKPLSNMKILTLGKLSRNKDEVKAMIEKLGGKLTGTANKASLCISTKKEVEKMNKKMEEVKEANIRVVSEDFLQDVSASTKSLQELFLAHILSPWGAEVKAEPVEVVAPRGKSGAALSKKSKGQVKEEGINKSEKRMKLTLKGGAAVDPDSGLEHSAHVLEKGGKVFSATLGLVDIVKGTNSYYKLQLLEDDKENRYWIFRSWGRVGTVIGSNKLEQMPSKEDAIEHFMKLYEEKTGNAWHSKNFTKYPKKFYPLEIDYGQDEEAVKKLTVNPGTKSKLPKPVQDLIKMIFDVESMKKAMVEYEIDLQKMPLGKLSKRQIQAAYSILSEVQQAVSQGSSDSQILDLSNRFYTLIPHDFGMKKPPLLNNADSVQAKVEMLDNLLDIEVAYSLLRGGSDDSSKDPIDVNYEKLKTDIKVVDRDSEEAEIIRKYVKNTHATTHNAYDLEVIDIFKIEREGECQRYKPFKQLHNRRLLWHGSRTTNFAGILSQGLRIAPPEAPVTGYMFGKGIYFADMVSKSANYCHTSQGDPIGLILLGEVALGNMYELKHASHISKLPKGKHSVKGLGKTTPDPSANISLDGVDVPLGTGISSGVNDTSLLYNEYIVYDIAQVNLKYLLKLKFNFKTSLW

Row | pIC50 [4] | Compound | pIC50 [2] | also measured
1 | – | CNC(=O)c1ccc(C2=CCN(Cc3ccc4c([nH]c(=O)c5cccnc54)c3F)CC2)c(F)n1 [Compound 27] | 9.16 | CLint scaled at 1 μM [1]: 0.57 L/h/kg; half-life at 1 μM [1]: 2.2 h
2 | – | CNC(=O)c1ccc(C2=CCN(Cc3ccc4c([nH]c(=O)c5cccn54)c3F)CC2)c(F)n1 [Compound 28] | 9.43 | –
3 | – | [2H]C([2H])([2H])NC(=O)c1ccc(N2CCN(Cc3ccc4c([nH]c(=O)c5cccnc54)c3F)CC2)c(F)n1 [Compound 29] | 8.94 | CLint scaled at 1 μM [3]: < 2.28 L/h/kg
4 | – | [2H]C([2H])(c1ccc2c([nH]c(=O)c3cccnc32)c1F)N1CCN(c2ccc(C(=O)NC)nc2F)CC1 [Compound 44] | 9.19 | –
5 | – | [2H]C([2H])(c1ccc2c([nH]c(=O)c3cccnc32)c1F)N1CCN(c2ccc(C(=O)NC)nc2Cl)CC1 [Compound 45] | 9.57 | –
6 | 8.10 | CNC(=O)c1ccc(N2CCN(Cc3ccc4c([nH]c(=O)c5cc(F)cnc54)c3F)CC2)c(Cl)n1 [Compound 50] | 9.39 | pIC50 [5]: < 4.70
7 | 8.26 | [2H]C([2H])([2H])NC(=O)c1ccc(N2CCN(Cc3ccc4c([nH]c(=O)c5cc(F)cnc54)c3F)CC2)c(Cl)n1 [Compound 52] | – | –
8 | – | CNC(=S)c1ccc(N2CCN(Cc3ccc4nc(C)c(=O)[nH]c4c3F)CC2)c(F)n1 [Trifluoroacetate of compound 5] | 8.92 | –
9 | 7.85 | CNC(=O)c1ccc2c(n1)CC[C@H]1CN(Cc3c(F)cc4nc(C)c(=O)[nH]c4c3F)CCN21 [Trifluoroacetate of compound 19] | – | pIC50 [6]: 7.62; pIC50 [5]: < 4.30
10 | – | CNC(=O)c1ccc(N2CCN(Cc3cc(F)c4nc(C)c(=O)[nH]c4c3F)CC2)c(F)n1 [Trifluoroacetate of compound 22] | 8.24 | pIC50 [6]: 8.35

Row | Compound | pIC50 [4] | pIC50 [2] | also measured
11 | [2H]C([2H])([2H])NC(=O)c1ccc(C2=CCN(Cc3ccc4c([nH]c(=O)c5cccnc54)c3F)CC2)c(F)n1 [Compound 31] | 8.33 | 9.12 | pIC50 [5]: < 4.70; CLint scaled at 1 μM [1]: < 0.516 L/h/kg; half-life at 1 μM [1]: > 2.42 h
